The record followed here is patent US20070128217A1 (priority 2003, published 2007).

Assay [1] concerns antibodies in sera from SARS patients (sera 1a, 1b, 2, 6, 37, 62, London, SARS-yellow, SARS-green). The class given is binding, human. Also noted: Binding of serum 6 to linear peptides of protein X1 of SARS-CoV Urbani / Binding of serum 37 to linear peptides of protein X1 of SARS-CoV Urbani / Binding of serum 6 to looped/cyclic peptide (PEPSCAN-ELISA) / Binding of serum 37 to looped/cyclic peptide (PEPSCAN-ELISA) / Binding of serum 37 to looped/cyclic peptides of protein X1 of SARS-CoV Urbani / Binding of serum 6 to linear peptides of protein X2 / Binding of serum 37 to linear peptides of protein X2 / Binding of serum 37 to looped/cyclic peptides of protein X2 of SARS-CoV Urbani / Binding of serum 6 to linear peptides of protein M of SARS-CoV Urbani / Binding of serum 37 to linear peptides of protein M of SARS-CoV Urbani / Binding of serum 6 to looped/cyclic peptides of protein M of SARS-CoV Urbani / Binding of serum 37 to looped/cyclic peptides of protein M of SARS-CoV Urbani / Binding of serum 6 to linear peptides of protein X3 of SARS-CoV Urbani / Binding of serum 37 to linear peptides of protein X3 of SARS-CoV Urbani / Binding of serum 37 to looped/cyclic peptides of protein X3 of SARS-CoV Urbani / Binding of serum 6 to linear peptides of protein X4 of SARS-CoV Urbani / Binding of serum 37 to linear peptides of protein X4 of SARS-CoV Urbani / Binding of serum 37 to looped/cyclic peptides of protein X4 of SARS-CoV Urbani / Binding of serum 6 to linear peptides of protein X5 of SARS-CoV Urbani / Binding of serum 37 to linear peptides of protein X5 of SARS-CoV Urbani / Binding of serum 37 to looped/cyclic peptides of protein X5 of SARS-CoV Urbani / Binding of serum 6 to linear peptides of protein N of SARS-CoV Urbani / Binding of serum 37 to linear peptides of protein N of SARS-CoV Urbani / Binding of serum 6 to linear peptide (PEPSCAN-ELISA) / Binding of serum 1a to looped/cyclic peptides of protein N of SARS-CoV Urbani / Binding of serum 1b to looped/cyclic peptides of protein N of SARS-CoV Urbani / Binding of serum 2 to looped/cyclic peptides of protein N of SARS-CoV Urbani / Binding of serum 6 to looped/cyclic peptides of protein N of SARS-CoV Urbani / Binding of serum 37 to looped/cyclic peptides of protein N of SARS-CoV Urbani / Binding of serum 62 to looped/cyclic peptides of protein N of SARS-CoV Urbani / Binding of serum London to looped/cyclic peptides of protein N of SARS-CoV Urbani / Binding of serum SARS-green to looped/cyclic peptides of protein N of SARS-CoV Urbani: unit not given here.

Assay [2] relates to control sera (pooled serum of ten healthy LUMC hospital workers; commercial negative donor pooled serum from the Dutch bloodbank). The class given is binding, human. Also noted: Binding of Control serum LUMC to linear peptides / Binding of Control serum Blood-bank to linear peptides / Binding of Control serum LUMC to looped peptides / Binding of Control Serum Blood-Bank to Looped peptides / Binding of Control serum LUMC to linear peptides of the protein M of SARS-CoV Urbani / Binding of Control serum Blood-bank to linear peptides of the protein M of SARS-CoV Urbani / Binding of Control serum LUMC to looped peptides of the protein M of SARS-CoV Urbani / Binding of Control Serum Blood-Bank to Looped peptides of the protein M of SARS-CoV Urbani: unit not given here.

Assay [3] deals with rabbit serum obtained by immunizing a rabbit with the SARS-CoV strain Frankfurt 1. The assay is classed as binding. Also noted: Binding of a rabbit serum to linear peptides / Binding of a rabbit serum to looped peptides / Rabbit serum linear peptides / Rabbit serum looped peptides / Binding of a rabbit serum to linear peptides of protein N of SARS-CoV Urbani (Rabbit serum linear peptides) / Binding of a rabbit serum to looped/cyclic peptides of protein N of SARS-CoV Urbani (Rabbit serum looped peptides): unit not given here.

On to LSLHKLLQTLVLKML, for which, in assay [1], the “Binding of serum 1a to linear peptides of protein X2” value came to 0.7, the “Binding of serum 1a to looped/cyclic peptides of protein X2 of SARS-CoV Urbani” value is 0.5, the “Binding of serum 1b to linear peptides of protein X2” value was determined as 0.4 and the “Binding of serum 1b to looped/cyclic peptides of protein X2 of SARS-CoV Urbani” value is on record as 0.4. In assay [1], the “Binding of serum 2 to linear peptides of protein X2” value came out at 0.3, the “Binding of serum 2 to looped/cyclic peptides of protein X2 of SARS-CoV Urbani” value worked out at 0.3, the “Binding of serum 6 to linear peptides of protein X2” value amounted to 0.3 and the “Binding of serum 6 to looped/cyclic peptides of protein X2 of SARS-CoV Urbani” value is given as 0.6. In assay [1], the “Binding of serum 37 to linear peptides of protein X2” value turned out to be 0.4, the “Binding of serum 37 to looped/cyclic peptides of protein X2 of SARS-CoV Urbani” value was 0.4, the “Binding of serum 62 to linear peptides of protein X2” value was determined as 0.5 and the “Binding of serum 62 to looped/cyclic peptides of protein X2 of SARS-CoV Urbani” value is listed as 0.6. Besides, in assay [1], the “Binding of serum London to linear peptides of protein X2” value is given as 0.4, the “Binding of serum London to looped/cyclic peptides of protein X2 of SARS-CoV Urbani” value came to 1.3, the “Binding of serum SARS-green to linear peptides of protein X2” value worked out at 0.4 and the “Binding of serum SARS-green to looped/cyclic peptides of protein X2 of SARS-CoV Urbani” value turned out to be 0.2. In addition, in assay [1], the “Binding of serum SARS-yellow to linear peptides of protein X2” value is 0.2 and the “Binding of serum SARS-yellow to looped/cyclic peptides of protein X2 of SARS-CoV Urbani” value stood at 0.6. For the same sequence, in assay [2], the “Binding of Control Serum Blood-Bank to Looped peptides” value amounted to 0.6, the “Binding of Control serum Blood-bank to linear peptides” value was 0.5, the “Binding of Control serum LUMC to linear peptides” value came to 0.2 and the “Binding of Control serum LUMC to looped peptides” value stood at 0.7. In assay [3], the “Binding of a rabbit serum to linear peptides” value came to 0.3 and the “Binding of a rabbit serum to looped peptides” value is 0.5.

On to LSYFVASFRLFARTR, for which, in assay [1], the “Binding of serum 1a to linear peptides of protein M of SARS-CoV Urbani” value was found to be 0.7, the “Binding of serum 1b to linear peptides of protein M of SARS-CoV Urbani” value was 0.4, the “Binding of serum 2 to linear peptides of protein M of SARS-CoV Urbani” value came out at 0.4 and the “Binding of serum 6 to linear peptides of protein M of SARS-CoV Urbani” value is 0.4. In assay [1], the “Binding of serum 37 to linear peptides of protein M of SARS-CoV Urbani” value was 0.6, the “Binding of serum 62 to linear peptides of protein M of SARS-CoV Urbani” value came out at 0.7, the “Binding of serum London to linear peptides of protein M of SARS-CoV Urbani” value is reported as 0.3 and the “Binding of serum SARS-green to linear peptides of protein M of SARS-CoV Urbani” value amounted to 0.2. Also, in assay [1], the “Binding of serum SARS-yellow to linear peptides of protein M of SARS-CoV Urbani” value is listed as 0.1; the “Recognition of the peptide by sera of SARS-CoV infected individuals, and form (linear, looped/cyclic) in which it is recognized” value is on record as “recognized in looped/cyclic form”. Besides, in assay [2], the “Binding of Control Serum Blood-Bank to Looped peptides of the protein M of SARS-CoV Urbani” value is 0.8, the “Binding of Control serum Blood-bank to linear peptides of the protein M of SARS-CoV Urbani” value turned out to be 0.6, the “Binding of Control serum LUMC to linear peptides of the protein M of SARS-CoV Urbani” value is recorded as 0.3 and the “Binding of Control serum LUMC to looped peptides of the protein M of SARS-CoV Urbani” value amounted to 1.0. In assay [3], the “Rabbit serum linear peptides” value is listed as 0.4 and the “Rabbit serum looped peptides” value is on record as 0.6.

As to LTCTSTHFAFACADG, in assay [1], the “Binding of serum 1a to linear peptides of protein X4 of SARS-CoV Urbani” value worked out at 0.8, the “Binding of serum 1a to looped/cyclic peptides of protein X4 of SARS-CoV Urbani” value came out at 0.6, the “Binding of serum 1b to linear peptides of protein X4 of SARS-CoV Urbani” value is 0.8 and the “Binding of serum 1b to looped/cyclic peptides of protein X4 of SARS-CoV Urbani” value is reported as 0.3. In assay [1], the “Binding of serum 2 to linear peptides of protein X4 of SARS-CoV Urbani” value was found to be 0.5, the “Binding of serum 2 to looped/cyclic peptides of protein X4 of SARS-CoV Urbani” value is reported as 0.6, the “Binding of serum 6 to linear peptides of protein X4 of SARS-CoV Urbani” value stood at 0.6 and the “Binding of serum 6 to looped/cyclic peptides of protein X4 of SARS-CoV Urbani” value was 0.5. Moreover, in assay [1], the “Binding of serum 37 to linear peptides of protein X4 of SARS-CoV Urbani” value worked out at 0.8, the “Binding of serum 37 to looped/cyclic peptides of protein X4 of SARS-CoV Urbani” value turned out to be 0.5, the “Binding of serum 62 to linear peptides of protein X4 of SARS-CoV Urbani” value stood at 0.8 and the “Binding of serum 62 to looped/cyclic peptides of protein X4 of SARS-CoV Urbani” value is recorded as 0.6. In assay [1], the “Binding of serum London to linear peptides of protein X4 of SARS-CoV Urbani” value came to 0.8, the “Binding of serum London to looped/cyclic peptides of protein X4 of SARS-CoV Urbani” value is reported as 0.3, the “Binding of serum SARS-green to linear peptides of protein X4 of SARS-CoV Urbani” value was 0.8 and the “Binding of serum SARS-green to looped/cyclic peptides of protein X4 of SARS-CoV Urbani” value amounted to 0.4. For the same sequence, in assay [1], the “Binding of serum SARS-yellow to linear peptides of protein X4 of SARS-CoV Urbani” value is given as 0.5 and the “Binding of serum SARS-yellow to looped/cyclic peptides of protein X4 of SARS-CoV Urbani” value is 0.4. In addition, in assay [2], the “Binding of Control Serum Blood-Bank to Looped peptides” value stood at 0.7, the “Binding of Control serum Blood-bank to linear peptides” value is given as 0.8, the “Binding of Control serum LUMC to linear peptides” value turned out to be 0.8 and the “Binding of Control serum LUMC to looped peptides” value was found to be 0.6. In addition, in assay [3], the “Rabbit serum linear peptides” value was 0.5 and the “Rabbit serum looped peptides” value is listed as 0.3.

On to LTLIVFTSCELYHYQ, for which, in assay [1], the “Binding of serum 1a to linear peptides of protein X4 of SARS-CoV Urbani” value stood at 0.7, the “Binding of serum 1a to looped/cyclic peptides of protein X4 of SARS-CoV Urbani” value came out at 0.8, the “Binding of serum 1b to linear peptides of protein X4 of SARS-CoV Urbani” value is on record as 0.6 and the “Binding of serum 1b to looped/cyclic peptides of protein X4 of SARS-CoV Urbani” value was 0.7. For the same sequence, in assay [1], the “Binding of serum 2 to linear peptides of protein X4 of SARS-CoV Urbani” value is 0.5, the “Binding of serum 2 to looped/cyclic peptides of protein X4 of SARS-CoV Urbani” value was determined as 0.7, the “Binding of serum 6 to linear peptides of protein X4 of SARS-CoV Urbani” value is reported as 0.5 and the “Binding of serum 6 to looped/cyclic peptides of protein X4 of SARS-CoV Urbani” value was determined as 0.5. For the same sequence, in assay [1], the “Binding of serum 37 to linear peptides of protein X4 of SARS-CoV Urbani” value is reported as 0.7, the “Binding of serum 37 to looped/cyclic peptides of protein X4 of SARS-CoV Urbani” value stood at 0.7, the “Binding of serum 62 to linear peptides of protein X4 of SARS-CoV Urbani” value is given as 0.8 and the “Binding of serum 62 to looped/cyclic peptides of protein X4 of SARS-CoV Urbani” value is given as 0.7. For the same sequence, in assay [1], the “Binding of serum London to linear peptides of protein X4 of SARS-CoV Urbani” value is on record as 0.7, the “Binding of serum London to looped/cyclic peptides of protein X4 of SARS-CoV Urbani” value turned out to be 0.3, the “Binding of serum SARS-green to linear peptides of protein X4 of SARS-CoV Urbani” value is listed as 0.7 and the “Binding of serum SARS-green to looped/cyclic peptides of protein X4 of SARS-CoV Urbani” value is 0.4. For the same sequence, in assay [1], the “Binding of serum SARS-yellow to linear peptides of protein X4 of SARS-CoV Urbani” value is given as 0.4 and the “Binding of serum SARS-yellow to looped/cyclic peptides of protein X4 of SARS-CoV Urbani” value is 0.7. Besides, in assay [2], the “Binding of Control Serum Blood-Bank to Looped peptides” value stood at 0.7, the “Binding of Control serum Blood-bank to linear peptides” value was 0.7, the “Binding of Control serum LUMC to linear peptides” value stood at 0.7 and the “Binding of Control serum LUMC to looped peptides” value was 0.8. In assay [3], the “Rabbit serum linear peptides” value came to 0.5 and the “Rabbit serum looped peptides” value was 0.3.
